Results from patent US9505741B2, “Prolylhydroxylase inhibitors and methods of use” (CORNELL UNIVERSITY, priority 2010, dated 2016).

Experiments:
[1] = test system: HIF ODD-luc reporter (HIF PHD-controlled stability); assay: HTS with cell-based HIF ODD-luciferase reporter (SH-SY5Y-ODD-luc cells); parameters: species or system human; details: three hours, SH-SY5Y-ODD-luc
Excerpt: For HTS, a cell-based reporter system was employed. The cell-based reporter system was generated by fusing HIF-1a oxygen degradable domain (ODD) to luciferase (Safran M. et al., PNAS, 2006, 103, 105-110), which represents a cell-based capture assay monitored by the consumption of the luciferase-labeled HIF substrate under the conditions more physiological than in vitro test tubes. In accord with their structure activity relationship in reporter assay, the best “hits” stabilize HIF1, upregulate known HIF target genes in a human neuronal line, and exert neuroprotective effects in established model of oxidative stress in cortical neurons.
The reporter cell lines constitutively expressing ODD-luc (human neuroblastoma, SH-SY5Y) were stable for more than one year without significant change in their response to canonical PHD inhibitors such as DFO, dihydroxybenzoate (DHB), dimethyloxalylglycine (DMOG), and ciclopirox (FIG. 1B). In order to verify the specificity of luciferase changes as an assay for PHD activity, several control lines were developed: the control line expressing ODD-luc with proline 564 and 567 mutated to Ala generates luciferase fusion that cannot be degraded and experimentally identifies a ceiling level of ODD-luc protein attainable in these cells. The background signal for the wild-type HIF ODD-luc line (PYIP) corresponds to approximately 5-6% of the ODD-luc levels in the control line AYIA (double mutant P564A/P567A line) (FIG. 2). Treatment with 10 μM ciclopirox results in a 10-fold increase of a background signal for the wild-type ODD-luc reporter (PYIP line), i.e. reaches almost 50% of the threshold value (FIG. 2).
The assay was optimized for HTS format to provide Z values above 0.7. SH-SY5Y-ODD-luc cells were plated into 384—well white flat-bottom plates at 7,000 cell/well in 30 μl of serum and incubated overnight at 37° C., 5% CO2. The next day, compounds were added to a final concentration of 10 μM, plates were incubated for three hours at 37° C., and luciferase activity was measured using SteadyGlo™ reagent (Promega). Each plate had two internal standards, ciclopirox (100%), and DMSO (0%). The reporter activation (%) was calculated as a ratio (L−LDMSO)/(Lciclopirox−LDMSO). Hits were defined as those >25%. HTS of 85,000 compounds was performed at Rockefeller HTS Resource Center. 295 hits from the initial screen have been tested in quadruplicate, 160 were confirmed. Classification into 10 structural clusters has been done manually; 25 hits were singletons.

HIF1α protein = assay: HIF immunoblot in SH-SY5Y neuroblastoma cells; format: cell-based, human; details: 5 μM, three hours
Experimental: After three hours of 5 μM drug treatment, cells were scraped in ice cold PBS and centrifuged at 1,000×g per 5 min. The pellet was used for nuclear extract preparation with the NE-PER Nuclear and Cytoplasmic Extraction kit (Pierce). After SDS-PAGE followed by transfer to a nitrocellulose membrane, the latter was incubated overnight at 4° C. with primary polyclonal antibody against HIF-1α (Upstate) and monoclonal antibody against β-actin (Sigma) (dilution 1:250 and 1:5000, respectively, in Odyssey Blocking Buffer). Secondary fluorophore conjugated Odyssey IRDye-680 and IRD-800 antibodies (LI-COR Biosciences) were added at 1:20,000 in Odyssey Blocking Buffer, and incubated for one hour at room temperature. Immunoreactive proteins were detected using Odyssey IR imaging system (LI-COR Biosciences).

Oc1cccc2cccnc12 [8-hydroxyquinoline, reference compound]
fold reporter activation over background ([1]; 10 μM): 4-5 fold | activation at 10 µM ([1]; Homo sapiens, 3 h, read-out: reporter activation (%) relative to ciclopirox (100%) and DMSO (0%)): 35 to 45% | HIF1α protein stabilization (HIF1α protein): not
